In PubChem BioAssay (NCI):
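Test compounds were applied to cells in 96-well plates for 48 hours at 5 doses. GI50 is the concentration that inhibits growth by half. TGI denotes the concentration required for complete inhibition of growth.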

Legend:
Test in all cases: inhibition of tumour cell growth, NCI panel, 48 h
786-0 renal = tested on: 786-0 renal
A498 renal = tested on: A498 renal
A549 NSCLC = tested on: A549 NSCLC
ACHN renal = tested on: ACHN renal
BT-549 breast = tested on: BT-549 breast
CAKI-1 renal = tested on: CAKI-1 renal
CCRF-CEM leukemia = tested on: CCRF-CEM leukemia
COLO 205 colon = tested on: COLO 205 colon
DU-145 prostate = tested on: DU-145 prostate
EKVX NSCLC = tested on: EKVX NSCLC
HCC-2998 colon = tested on: HCC-2998 colon
HCT-116 colon = tested on: HCT-116 colon
HCT-15 colon = tested on: HCT-15 colon
HL-60(TB) leukemia = tested on: HL-60(TB) leukemia
HOP-62 NSCLC = tested on: HOP-62 NSCLC
HOP-92 NSCLC = tested on: HOP-92 NSCLC
HS 578T breast = tested on: HS 578T breast
HT29 colon = tested on: HT29 colon
IGROV1 ovarian = tested on: IGROV1 ovarian
K-562 leukemia = tested on: K-562 leukemia
KM12 colon = tested on: KM12 colon
LOX IMVI melanoma = tested on: LOX IMVI melanoma
M14 melanoma = tested on: M14 melanoma
MALME-3M melanoma = tested on: MALME-3M melanoma
MCF7 breast = tested on: MCF7 breast
MDA-MB-231 breast = tested on: MDA-MB-231 breast
MDA-MB-435 = tested on: MDA-MB-435
NCI-H226 lung = tested on: NCI-H226 lung
NCI-H23 lung = tested on: NCI-H23 lung
NCI-H460 lung = tested on: NCI-H460 lung
NCI-H522 lung = tested on: NCI-H522 lung
NCI/ADR-RES ovarian = tested on: NCI/ADR-RES ovarian
OVCAR-3 ovarian = tested on: OVCAR-3 ovarian
OVCAR-4 ovarian = tested on: OVCAR-4 ovarian
OVCAR-5 ovarian = tested on: OVCAR-5 ovarian
OVCAR-8 ovarian = tested on: OVCAR-8 ovarian
PC-3 prostate = tested on: PC-3 prostate
RPMI-8226 leukemia = tested on: RPMI-8226 leukemia
RXF 393 renal = tested on: RXF 393 renal
SF-268 CNS = tested on: SF-268 CNS
SF-295 CNS = tested on: SF-295 CNS
SK-MEL-2 melanoma = tested on: SK-MEL-2 melanoma
SK-MEL-28 melanoma = tested on: SK-MEL-28 melanoma
SK-MEL-5 melanoma = tested on: SK-MEL-5 melanoma
SK-OV-3 ovarian = tested on: SK-OV-3 ovarian
SN12C renal = tested on: SN12C renal
SNB-19 CNS = tested on: SNB-19 CNS
SNB-75 CNS = tested on: SNB-75 CNS
SR leukemia = tested on: SR leukemia
SW-620 colon = tested on: SW-620 colon
T-47D breast = tested on: T-47D breast
TK-10 renal = tested on: TK-10 renal
U251 CNS = tested on: U251 CNS
UACC-257 melanoma = tested on: UACC-257 melanoma
UACC-62 melanoma = tested on: UACC-62 melanoma
UO-31 renal = tested on: UO-31 renal
SF-539 CNS = tested on: SF-539 CNS

COc1cc(OC)cc(Oc2nc3cc(N)cc(N)c3nc2-c2ccccc2)c1 showed a TGI (786-0 renal) of 11.4 µM, a TGI (A498 renal) of 14.4 µM and a GI50 (A549 NSCLC) of 2.88 µM. For the same compound, the TGI (A549 NSCLC) was 13.2 µM, the TGI (ACHN renal) was 17.9 µM and the GI50 (BT-549 breast) was 1.49 µM. It also gave a TGI (BT-549 breast) of 6.92 µM, a TGI (CAKI-1 renal) of 24.1 µM and a GI50 (CCRF-CEM leukemia) of 1.97 µM. The TGI (CCRF-CEM leukemia) was 8.67 µM, the GI50 (COLO 205 colon) was 10.6 µM and the TGI (COLO 205 colon) was 22.4 µM. For the same compound, the TGI (DU-145 prostate) was 25.1 µM, the GI50 (EKVX NSCLC) was 3.77 µM and the TGI (EKVX NSCLC) was 19.3 µM. For the same compound, the GI50 (HCC-2998 colon) was 2.52 µM, the TGI (HCC-2998 colon) was 13.7 µM and the GI50 (HCT-116 colon) was 2.36 µM. The TGI (HCT-116 colon) was 10.1 µM, the GI50 (HCT-15 colon) was 2.04 µM and the TGI (HCT-15 colon) was 12.4 µM. It also gave a GI50 (HL-60(TB) leukemia) of 3.07 µM, a TGI (HL-60(TB) leukemia) of 25.9 µM and a GI50 (HOP-62 NSCLC) of 2.14 µM. The TGI (HOP-62 NSCLC) was 12.8 µM, the GI50 (HOP-92 NSCLC) was 1.36 µM and the TGI (HOP-92 NSCLC) was 8.9 µM. It also gave a GI50 (HS 578T breast) of 1.32 µM, a TGI (HS 578T breast) of 4.19 µM and a GI50 (HT29 colon) of 4.37 µM. For the same compound, the TGI (HT29 colon) was 17.8 µM, the GI50 (IGROV1 ovarian) was 2.62 µM and the TGI (IGROV1 ovarian) was 12.3 µM. For the same compound, the GI50 (K-562 leukemia) was 3.77 µM, the TGI (K-562 leukemia) was 32.4 µM and the GI50 (KM12 colon) was 1.03 µM. It also gave a TGI (KM12 colon) of 6.07 µM, a GI50 (LOX IMVI melanoma) of 2.95 µM and a TGI (LOX IMVI melanoma) of 13 µM. For the same compound, the GI50 (M14 melanoma) was 1.6 µM, the TGI (M14 melanoma) was 7.76 µM and the GI50 (MALME-3M melanoma) was 0.426 µM. The TGI (MALME-3M melanoma) was 5.09 µM, the GI50 (MCF7 breast) was 1.69 µM and the TGI (MCF7 breast) was 4.53 µM. It also gave a GI50 (MDA-MB-231 breast) of 4.02 µM, a TGI (MDA-MB-231 breast) of 21.8 µM and a GI50 (MDA-MB-435) of 0.392 µM. It also gave a TGI (MDA-MB-435) of 1.83 µM, a GI50 (NCI-H226 lung) of 6.55 µM and a TGI (NCI-H226 lung) of 43 µM. For the same compound, the GI50 (NCI-H23 lung) was 1.69 µM, the TGI (NCI-H23 lung) was 12.7 µM and the GI50 (NCI-H460 lung) was 2.92 µM. The TGI (NCI-H460 lung) was 12.5 µM, the GI50 (NCI-H522 lung) was 0.891 µM and the TGI (NCI-H522 lung) was 4.31 µM. The GI50 (NCI/ADR-RES ovarian) was 1.13 µM, the TGI (NCI/ADR-RES ovarian) was 3.85 µM and the GI50 (OVCAR-3 ovarian) was 2.22 µM. For the same compound, the TGI (OVCAR-3 ovarian) was 8.65 µM, the GI50 (OVCAR-4 ovarian) was 2.89 µM and the TGI (OVCAR-4 ovarian) was 16.2 µM. For the same compound, the GI50 (OVCAR-5 ovarian) was 3.24 µM, the TGI (OVCAR-5 ovarian) was 16.4 µM and the GI50 (OVCAR-8 ovarian) was 2.9 µM. For the same compound, the TGI (OVCAR-8 ovarian) was 16.3 µM, the TGI (PC-3 prostate) was 17.4 µM and the TGI (RPMI-8226 leukemia) was 8.42 µM. The TGI (RXF 393 renal) was 4.41 µM, the GI50 (SF-268 CNS) was 1.75 µM and the TGI (SF-268 CNS) was 7.13 µM. It also gave a GI50 (SF-295 CNS) of 2.21 µM, a TGI (SF-295 CNS) of 8.49 µM and a GI50 (SK-MEL-2 melanoma) of 2.29 µM. It also gave a TGI (SK-MEL-2 melanoma) of 10.2 µM, a GI50 (SK-MEL-28 melanoma) of 3.18 µM and a TGI (SK-MEL-28 melanoma) of 15.5 µM. It also gave a GI50 (SK-MEL-5 melanoma) of 1.89 µM, a TGI (SK-MEL-5 melanoma) of 6.47 µM and a GI50 (SK-OV-3 ovarian) of 3.49 µM. It also gave a TGI (SK-OV-3 ovarian) of 16.3 µM, a TGI (SN12C renal) of 22.3 µM and a GI50 (SNB-19 CNS) of 2.49 µM. It also gave a TGI (SNB-19 CNS) of 12.5 µM, a GI50 (SNB-75 CNS) of 0.127 µM and a TGI (SNB-75 CNS) of 2.67 µM. It also gave a GI50 (SR leukemia) of 1.85 µM, a TGI (SR leukemia) of 28.9 µM and a GI50 (SW-620 colon) of 2.26 µM. For the same compound, the TGI (SW-620 colon) was 10.2 µM, the GI50 (T-47D breast) was 2.37 µM and the TGI (T-47D breast) was 9.13 µM. It also gave a TGI (TK-10 renal) of 8.44 µM, a GI50 (U251 CNS) of 2.6 µM and a TGI (U251 CNS) of 10.8 µM. For the same compound, the GI50 (UACC-257 melanoma) was 2.19 µM, the TGI (UACC-257 melanoma) was 12.3 µM and the GI50 (UACC-62 melanoma) was 4.04 µM. The TGI (UACC-62 melanoma) was 18 µM and the TGI (UO-31 renal) was 15.3 µM.
For O=C1/C(=C/c2cccc(O)c2)COc2ccccc21, the TGI (786-0 renal) was 14.5 µM, the TGI (A498 renal) was 34.7 µM and the TGI (A549 NSCLC) was 47.2 µM. It also gave a TGI (ACHN renal) of 3.89 µM, a TGI (BT-549 breast) of 49.5 µM and a TGI (CAKI-1 renal) of 11.9 µM. For the same compound, the TGI (CCRF-CEM leukemia) was > 100 µM, the TGI (COLO 205 colon) was 31.6 µM and the TGI (DU-145 prostate) was 28.1 µM. For the same compound, the TGI (EKVX NSCLC) was 34 µM, the TGI (HCC-2998 colon) was 1.48 µM and the TGI (HCT-116 colon) was 3.32 µM. It also gave a TGI (HCT-15 colon) of 3.26 µM, a TGI (HL-60(TB) leukemia) of 63.8 µM and a TGI (HOP-62 NSCLC) of 28.4 µM. For the same compound, the TGI (HOP-92 NSCLC) was > 55.6 µM, the TGI (HS 578T breast) was 43.6 µM and the TGI (HT29 colon) was 11.4 µM. The TGI (IGROV1 ovarian) was 23.1 µM, the TGI (K-562 leukemia) was > 33.2 µM and the TGI (KM12 colon) was 7.09 µM. The TGI (LOX IMVI melanoma) was 3.92 µM, the TGI (M14 melanoma) was 13 µM and the TGI (MALME-3M melanoma) was 26.3 µM. For the same compound, the TGI (MCF7 breast) was > 43.6 µM, the TGI (MDA-MB-231 breast) was 21.4 µM and the TGI (MDA-MB-435) was 17.2 µM. The TGI (NCI-H226 lung) was 32.4 µM, the TGI (NCI-H23 lung) was 18.1 µM and the TGI (NCI-H460 lung) was 54.6 µM. It also gave a TGI (NCI-H522 lung) of 5.82 µM, a TGI (NCI/ADR-RES ovarian) of 5.25 µM and a TGI (OVCAR-3 ovarian) of 4.85 µM. For the same compound, the TGI (OVCAR-4 ovarian) was 21.8 µM, the TGI (OVCAR-5 ovarian) was 26.6 µM and the TGI (OVCAR-8 ovarian) was 24.4 µM. For the same compound, the TGI (PC-3 prostate) was > 53.8 µM, the TGI (RXF 393 renal) was 29 µM and the TGI (SF-268 CNS) was 40.8 µM. It also gave a TGI (SF-295 CNS) of 33.4 µM, a TGI (SF-539 CNS) of 25.8 µM and a TGI (SK-MEL-2 melanoma) of 34.6 µM. For the same compound, the TGI (SK-MEL-28 melanoma) was 11.9 µM, the TGI (SK-MEL-5 melanoma) was 22.8 µM and the TGI (SK-OV-3 ovarian) was 46.3 µM. The TGI (SN12C renal) was 19.8 µM, the TGI (SNB-19 CNS) was 21.8 µM and the TGI (SNB-75 CNS) was 34.5 µM. For the same compound, the TGI (SR leukemia) was > 100 µM, the TGI (SW-620 colon) was 6.79 µM and the TGI (T-47D breast) was 21.1 µM. The TGI (TK-10 renal) was 31.2 µM, the TGI (U251 CNS) was 3.8 µM and the TGI (UACC-257 melanoma) was 7.29 µM. For the same compound, the TGI (UACC-62 melanoma) was 9.81 µM and the TGI (UO-31 renal) was 24.8 µM.
